The values below come from patent publication US4237141A, “Derivatives of α-methyl-β-aminopropiophenone and use thereof” (priority 1977, dated 1980).

The subject of series [1] is guinea-pig isolated tracheal smooth muscles. Briefly: Relaxant action on guinea-pig isolated tracheal chain contracted by histamine. The note with it: for EC50: Cavia porcellus, contracted by 10^-4 M histamine, read-out: A: 50% effective amount for the guinea-pig isolated tracheal smooth muscles (50% relaxation); for B/A: selectivity to tracheal smooth muscles: based on reference B/A value 1 for isoproterenol, B from canine femoral artery. From the text: (§1) Reference will now be made to pharmacological effects of the compounds according to the present invention.
(§2) (1) Relaxant action on the guinea-pig isolated tracheal smooth muscles and the vasodilating action on the canine anesthetized femoral arterial preparation were employed to compare the pharmacological effects of each of the compounds.

Series [2] has as its system canine femoral arterial preparation. The series can be described thus: Vasodilating action in the canine anesthetized femoral arterial preparation (close arterial injection). Type of series: in vivo.
From the text: as §1, §2

A further series relates to β-adrenoceptor. The series can be described thus: Relaxant action on guinea-pig isolated trachea in the presence of propranolol (β-adrenoceptor involvement). The note with it: histamine 10^-4 M; propranolol 2.5×10^-5 M; FIGS. 1-4.
From the text: as §2
Histamine (10^-4 M in the bath medium) was applied to the guinea-pig isolated tracheal preparation to contract the muscles, and the effect of the above compounds to inhibit the contraction (%) was plotted along the ordinate on each of the points for concentration which were connected by a solid line into a curve. Then, the dose-response curve for the compound in the presence of propranolol (2.5×10^-5 M) was obtained and plotted in a dotted line.

The nature of series [3]: Acute toxicity, intraperitoneal injection in mice. To be noted: mouse, in vivo, ip; intraperitoneal injection to mice; read-out: F: Approx. LD50 value. The method, then:
Another experiment was also conducted using mice as an index for the acute toxicity to the whole body.
Approx. LD50 value on intraperitoneal injection for mice was determined.

Series [4] has as its system canine blood-perfused tracheal preparation. Briefly: Canine blood-perfused tracheal preparation in situ: intraluminal pressure decrease and perfused-blood flow increase. Type of series: in vivo. The note with it: for D/C × 10: selectivity: based on reference D/C value 1 for isoproterenol; for C: dose required for 20 cm H2O decrease in the tracheal intraluminal pressure (bronchodilator action) / D: dose required for 5 ml/min increase in the perfused-blood flow (vasodilator action): canine blood-perfused tracheal preparation in situ. How it is done: as §1
The bronchodilator action was represented by a dose (C), μg, of a compound required for decreasing the intraluminal pressure by 20 cm H2 O and the vasodilator action was represented by a dose (D), μg, of the compound required for increasing the perfused-blood flow by 5 ml/min.

The term LD50 denotes the dose expected to kill half of the subjects tested.

Consider `CC(CN1CCCCC1)C(=O)c1ccc([S+](C)[O-])cc1` (centres unmarked) [Compound 4, 1-(4-methylsulfinylphenyl)-3-piperidino-2-methylpropanone-1], for which, in series [1], the EC50 came out at 300 µM and the “B/A: selectivity to tracheal smooth muscles” value (“B/A: selectivity” below) is reported as 3. The “B: dose required for 30 ml/min increase in the perfused-blood flow (vasodilator action)” value (from here on “B: dose required for 30 ml/min increase”) in series [2] turned out to be 800 µg.

Take `CC[S+]([O-])c1ccc(C(=O)C(C)CN2CCCCC2)cc1` (centres unmarked) [Compound 10]: in series [1], the EC50 amounted to 200 µM and the “B/A: selectivity” value amounted to 4. Also, in series [2], the “B: dose required for 30 ml/min increase” value was 700 µg.

For the molecule `CC(CN1CCCCC1)C(=O)c1ccc(S(C)(=O)=O)cc1` (centres unmarked) [Compound 16, 1-(4-methylsulfonylphenyl)-3-piperidino-2-methylpropanone-1], in series [1], the EC50 worked out at 60 µM and the “B/A: selectivity” value was 12. In addition, in the series with β-adrenoceptor, the “difference between dose-response curves without and with propranolol (inhibition of histamine contraction)” value is “no substantial difference”. The “B: dose required for 30 ml/min increase” value in series [2] amounted to 750 µg.

Take `CCS(=O)(=O)c1ccc(C(=O)C(C)CN2CCCCC2)cc1` (centres unmarked) [Compound 22, 1-(4-ethylsulfonylphenyl)-3-piperidino-2-methylpropanone-1]: in series [1], the EC50 was 60 µM and the “B/A: selectivity” value amounted to 9. Moreover, the “B: dose required for 30 ml/min increase” value in series [2] worked out at 580 µg.

For `CCSc1ccc(C(=O)C(C)CN2CCOCC2)cc1` (centres unmarked) [Compound 25, 1-(4-ethylthiophenyl)-3-morpholino-2-methylpropanone-1], in series [1], the EC50 amounted to 100 µM and the “B/A: selectivity” value is 1. Also, the LD50 in series [3] is 200 mg/kg. The “B: dose required for 30 ml/min increase” value in series [2] was 100 µg.

Regarding `CCCC[S+]([O-])c1ccc(C(=O)C(C)CN2CCCCC2)cc1` (centres unmarked) [Compound 28, 1-(4-butylsulfinylphenyl)-3-piperidino-2-methylpropanone-1], in series [1], the EC50 is 60 µM and the “B/A: selectivity” value is given as 8. Moreover, the “B: dose required for 30 ml/min increase” value in series [2] is 460 µg.

As to `CCSc1ccc(C(=O)C(C)CN2CCCCC2)cc1` (centres unmarked) [Compound 29, 1-(4-ethylthiophenyl)-3-piperidino-2-methylpropanone-1], in series [1], the EC50 is 2 µM and the “B/A: selectivity” value worked out at 90. The “difference between dose-response curves without and with propranolol (inhibition of histamine contraction)” value in the series with β-adrenoceptor is reported as “no substantial difference”. In series [4], the “D/C × 10: selectivity” value is 7, the “C: dose required for 20 cm H2O decrease in the tracheal intraluminal pressure (bronchodilator action)” value (from here on “C: dose required for 20 cm H2O decrease”) turned out to be 109 µg and the “D: dose required for 5 ml/min increase in the perfused-blood flow (vasodilator action)” value (“D: dose required for 5 ml/min increase” below) is 77 µg. Besides, the “B: dose required for 30 ml/min increase” value in series [2] is 180 µg.

Regarding `CCCCS(=O)(=O)c1ccc(C(=O)C(C)CN2CCCCC2)cc1` (centres unmarked) [Compound 36, 1-(4-butylsulfonylphenyl)-3-piperidino-2-methylpropanone-1], in series [1], the EC50 was 20 µM and the “B/A: selectivity” value came to 18. In addition, in series [4], the “D/C × 10: selectivity” value is 3, the “C: dose required for 20 cm H2O decrease” value amounted to 333 µg and the “D: dose required for 5 ml/min increase” value was determined as 100 µg. For the same molecule, in series [2], the “B: dose required for 30 ml/min increase” value was 360 µg.

`CCSc1ccc(C(=O)C(C)CN2CCCC2)cc1` (centres unmarked) [Compound 37]: in series [1], the EC50 stood at 30 µM and the “B/A: selectivity” value is on record as 6. For the same molecule, in series [3], the LD50 is 200 mg/kg. In addition, the “B: dose required for 30 ml/min increase” value in series [2] was 175 µg.

As to `CC(CN1CCCCC1)C(=O)c1ccc(S(=O)(=O)c2ccccc2)cc1` (centres unmarked) [Compound 42, 1-(4-phenylsulfonylphenyl)-3-piperidino-2-methylpropanone-1], in series [1], the EC50 turned out to be 20 µM and the “B/A: selectivity” value came to 9. The “B: dose required for 30 ml/min increase” value in series [2] came out at 175 µg.

On to `CSc1ccc(C(=O)C(C)CN(C)C)cc1` (centres unmarked) [Compound 48, 1-(4-methylthiophenyl)-3-dimethylamino-2-methylpropanone-1], for which, in series [1], the EC50 was determined as 6 µM and the “B/A: selectivity” value was determined as 17. The “B: dose required for 30 ml/min increase” value in series [2] was found to be 100 µg.

Take `CSc1ccc(C(=O)C(C)CN2CCCC2)cc1` (centres unmarked) [Compound 50]: in series [1], the EC50 was 6 µM and the “B/A: selectivity” value is recorded as 7. Besides, in series [2], the “B: dose required for 30 ml/min increase” value amounted to 43 µg.

On to `CSc1ccc(C(=O)C(C)CN2CCCCC2)cc1` (centres unmarked) [Compound 51, 1-(4-methylthiophenyl)-3-piperidino-2-methylpropanone-1], for which, in series [1], the EC50 came out at 6 µM and the “B/A: selectivity” value was 40. Besides, the “difference between dose-response curves without and with propranolol (inhibition of histamine contraction)” value in the series with β-adrenoceptor was “no substantial difference”. Further, in series [4], the “D/C × 10: selectivity” value turned out to be 8, the “C: dose required for 20 cm H2O decrease” value is 62.5 µg and the “D: dose required for 5 ml/min increase” value came out at 50 µg. Also, the “B: dose required for 30 ml/min increase” value in series [2] turned out to be 240 µg.

With `CSc1ccc(C(=O)C(C)CN2CCN(C)CC2)cc1` (centres unmarked) [Compound 53], in series [1], the EC50 is 200 µM and the “B/A: selectivity” value amounted to 2. Further, the “B: dose required for 30 ml/min increase” value in series [2] was determined as 430 µg.

Turning to `CCSc1ccc(C(=O)C(C)CN(C)C)cc1` (centres unmarked) [Compound 54], in series [1], the EC50 came out at 60 µM and the “B/A: selectivity” value was found to be 6. Further, in series [3], the LD50 worked out at 200 mg/kg. For the same molecule, the “B: dose required for 30 ml/min increase” value in series [2] is 350 µg.

With `CCSc1ccc(C(=O)C(C)CN(CC)CC)cc1` (centres unmarked) [Compound 55], in series [1], the EC50 was 60 µM and the “B/A: selectivity” value is 5. The LD50 in series [3] was determined as 200 mg/kg. For the same molecule, the “B: dose required for 30 ml/min increase” value in series [2] turned out to be 270 µg.

For `CC(C)NCC(O)c1ccc(O)c(O)c1` (centres unmarked) [isoproterenol, reference compound], the EC50 in series [1] stood at 0.005 µM. In series [4], the “C: dose required for 20 cm H2O decrease” value is 0.1 µg and the “D: dose required for 5 ml/min increase” value amounted to 0.01 µg. Also, the “B: dose required for 30 ml/min increase” value in series [2] is 0.0053 µg.

Consider `CC(C)(C)NCC(O)c1ccc(O)c(CO)c1` (centres unmarked) [salbutamol], for which, in series [4], the “D/C × 10: selectivity” value is on record as 2, the “C: dose required for 20 cm H2O decrease” value amounted to 2 µg and the “D: dose required for 5 ml/min increase” value was determined as 0.4 µg.

`CC(C)(C)NCC(O)c1cc(O)cc(O)c1` (centres unmarked) [terbutaline]: in series [4], the “D/C × 10: selectivity” value was 4, the “C: dose required for 20 cm H2O decrease” value is 0.5 µg and the “D: dose required for 5 ml/min increase” value turned out to be 0.2 µg.

As to `COc1cc(CC2NCCc3cc(O)c(O)cc32)cc(OC)c1OC` (centres unmarked) [trimetoquinol], in series [4], the “D/C × 10: selectivity” value came out at 2.5, the “C: dose required for 20 cm H2O decrease” value came to 0.2 µg and the “D: dose required for 5 ml/min increase” value stood at 0.05 µg.
